System: MV-4-11 cells
Test: Gene expression microarray analysis (Affymetrix PrimeView) and GSEA
Format: cell-based, human
Conditions: gene C12orf56; ACY-1035 1 mM; LIST F

## Nc1ccc(-c2cccs2)cc1NC(=O)c1ccc2c(c1)cc(C1CC1)n2CCN1CCOCC1 [ACY-1035]
  RFU, C12orf56 (ProbeSet 11735607_a_at): 71.19 RFU

Reference: publication PMC5218480 (PLoS ONE, 2017)
